Experiments:
MNK2a = MNK2a (Homo sapiens (Human), UniProt Q9HBH9); test: MNK2a in vitro kinase assay (Assay 2), ADP-Glo; assay type: biochemical; conditions: read-out: MNK2 IC50
MNK1 = MNK1 (Homo sapiens (Human), UniProt Q9BUB5); test: MNK1 in vitro kinase assay (Assay 3), Z'-LYTE; assay type: biochemical; conditions: for inhibition at 1 µM: compound concentration of 1 μM, read-out: MNK1 % INH
From the text: C. MNK1 In vitro Kinase Assay (Assay 3)
MNK1 Data can be obtained from the MNK1 Z′-LYTE® assay. The MNK1 Z′-LYTE® screening protocol and assay conditions are also described on www.invitrogen.com.
The assay is described as follows:
The Z′-LYTE® biochemical assay employs a fluorescence-based, coupled-enzyme format and is based on the differential sensitivity of phosphorylated and non-phosphorylated peptides to proteolytic cleavage. The peptide substrate is labeled with two fluorophores—one at each end—that make up a FRET pair.
In the primary reaction, the kinase transfers the gamma-phosphate of ATP to a single tyrosine, serine or threonine residue in a synthetic FRET-peptide. In the secondary reaction, a site-specific protease recognizes and cleaves non-phosphorylated FRET-peptides. Phosphorylation of FRET-peptides suppresses cleavage by the Development Reagent. Cleavage disrupts FRET between the donor (i.e., coumarin) and acceptor (i.e., fluorescein) fluorophores on the FRET-peptide, whereas uncleaved, phosphorylated FRET-peptides maintain FRET. A ratiometric method, which calculates the ratio (the Emission Ratio) of donor emission to acceptor emission after excitation of the donor fluorophore at 400 nm, is used to quantitate reaction progress, as shown in the equation below.
ASSAY SETUP: The inhibition of kinase activity of MNK1a was assessed using pre-activated GST-MNK1a. The 2×MKNK1 (MNK1) mixture is prepared in 50 mM HEPES pH 7.5, 0.01% BRIJ-35, 10 mM MgCl2, 4 mM MnCl2, 1 mM EGTA, 2 mM DTT.
The Test Compounds are screened in 1% DMSO (final) in the well.
All Peptide/Kinase Mixtures are diluted to a 2× working concentration in the MNK1 Kinase Buffer.
All ATP Solutions are diluted to a 4× working concentration in Kinase Buffer (50 mM HEPES pH 7.5, 0.01% BRIJ-35, 10 mM MgCl2, 1 mM EGTA).
Development Reagent Solution:
The Development Reagent is diluted in Development Buffer
1. 2.5 μL—4× Test Compound
2. 5 μL—2× Peptide/Kinase Mixture
5. 60-minute Kinase Reaction incubation at room temperature
6. 5 μl—Development Reagent Solution
8. 60-minute Development Reaction incubation at room temperature
9. Read on fluorescence plate reader and analyze the data
The following equations are used for each set of data points: […]
Correction for Background Fluorescence: FlSample-FlTCFl Ctl
% Phosphorylation (% Phos): 1−((Emission Ratio×F100%)−C100%)/((C0%−C100%)+[Emission Ratio×(F100%−F0%)])*100%
% Inhibition: 1−(% PhosSample/% Phos0% Inhibition Ctl)*100
Fl=Fluorescence Intensity
C100%=Average Coumarin emission signal of the 100% Phos. Control
C0%=Average Coumarin emission signal of the 0% Phos. Control
F100%=Average Fluorescein emission signal of the 100% Phos. Control
F0%=Average Fluorescein emission signal of the 0% Phos. Control
SelectScreen® Kinase Profiling Service uses XLfit from IDBS.

MNK2a, sequence (Q9HBH9 whole entry): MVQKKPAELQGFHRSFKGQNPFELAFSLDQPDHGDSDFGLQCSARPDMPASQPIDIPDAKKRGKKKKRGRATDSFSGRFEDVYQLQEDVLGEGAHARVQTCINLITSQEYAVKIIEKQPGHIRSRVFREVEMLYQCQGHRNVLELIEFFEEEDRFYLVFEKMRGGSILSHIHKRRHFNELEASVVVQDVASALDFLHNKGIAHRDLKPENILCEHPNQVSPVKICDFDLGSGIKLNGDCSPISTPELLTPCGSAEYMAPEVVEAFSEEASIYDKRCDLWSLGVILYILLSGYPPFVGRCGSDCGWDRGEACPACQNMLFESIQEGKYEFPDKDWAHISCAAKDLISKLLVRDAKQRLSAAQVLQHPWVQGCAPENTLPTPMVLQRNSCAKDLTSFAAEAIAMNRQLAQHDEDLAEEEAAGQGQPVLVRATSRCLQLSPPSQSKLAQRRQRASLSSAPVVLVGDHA
MNK1, sequence (Q9BUB5 other isoform, or with tags, fused parts or gaps): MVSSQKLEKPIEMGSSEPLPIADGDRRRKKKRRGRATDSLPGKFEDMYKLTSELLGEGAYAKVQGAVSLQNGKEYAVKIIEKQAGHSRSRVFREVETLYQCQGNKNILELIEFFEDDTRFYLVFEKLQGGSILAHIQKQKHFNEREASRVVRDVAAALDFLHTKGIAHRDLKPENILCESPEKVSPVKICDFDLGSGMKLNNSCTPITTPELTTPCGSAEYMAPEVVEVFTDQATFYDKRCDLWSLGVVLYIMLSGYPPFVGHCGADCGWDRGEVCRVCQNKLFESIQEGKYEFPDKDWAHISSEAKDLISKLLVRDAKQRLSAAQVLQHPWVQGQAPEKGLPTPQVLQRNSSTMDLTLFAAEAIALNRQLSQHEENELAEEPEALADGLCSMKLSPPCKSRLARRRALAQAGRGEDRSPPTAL

SMILES | IC50 (MNK2a) [nM] | inhibition at 1 µM (MNK1) [%] | IC50 (MNK1) [nM]
Cc1cc(N=S(C)(C)=O)cc2ncnc(Nc3ccc(F)cc3OC(C)c3ccncc3)c12 (stereo not drawn) [Example 3.046] | 2 | 97 | 
C[C@@H](Oc1cc(F)ccc1Nc1ncnc2cc(N=S3(=O)CCCC3)cc(F)c12)C(=O)NCC(F)(F)F [Example 3.047] | 1 | 96 | 
Cc1cc(N=S(C)(C)=O)cc2ncnc(Nc3ccc(F)cc3OCC3CCOC3)c12 (stereo not drawn) [Example 3.048] | 11 | 88 | 
C[C@@H](Oc1cc(F)ccc1Nc1ncnc2cc(N=S(C)(C)=O)cc(F)c12)C(=O)NCC(F)(F)F [Example 3.049] | 2 |  | 68
COCC(C)Oc1cc(F)ccc1Nc1ncnc2cc(N=S(C)(C)=O)cc(C)c12 (stereo not drawn) [Example 3.050] | 32 | 87 | 
Cc1cc(N=S(C)(C)=O)cc2ncnc(Nc3ccc(F)cc3O[C@H](C)C(=O)NC(C(F)(F)F)C(F)(F)F)c12 [Example 3.054] | 1 | 58 | 51
Cc1cc(N=S2(=O)CCCC2)cc2ncnc(Nc3ccc(F)cc3O[C@H](C)C(=O)NCC3CCCO3)c12 (stereo partly drawn) [Example 4.001] | 5 | 97 | 
Cc1cc(N=S(C)(C)=O)cc2ncnc(Nc3ccc(F)cc3O[C@H](C)C(=O)N(C)C)c12 [Example 4.002] | 5 | 54 | 
Cc1cc(N=S2(=O)CCCC2)cc2ncnc(Nc3ccc(F)cc3O[C@H](C)C(=O)N(C)C(C)C)c12 [Example 4.003] | 2 | 96 | 
Cc1cc(N=S(C)(C)=O)cc2ncnc(Nc3ccc(F)cc3O[C@H](C)C(=O)N3CCC(O)C3)c12 (stereo partly drawn) [Example 4.005] | 28 | 74 | 
Cc1cc(N=S2(=O)CCCC2)cc2ncnc(Nc3ccc(F)cc3O[C@H](C)C(=O)NCC(C)O)c12 (stereo partly drawn) [Example 4.008] | 2 | 97 | 
Cc1cc(N=S(C)(C)=O)cc2ncnc(Nc3ccc(F)cc3O[C@H](C)C(=O)NC3COC3)c12 [Example 4.009] | 2 | 99 | 
Cc1cc(N=S2(=O)CCCC2)cc2ncnc(Nc3ccc(F)cc3O[C@H](C)C(=O)N3CCC(O)C3)c12 (stereo partly drawn) [Example 4.010] | 4 | 89 | 
Cc1cc(N=S(C)(C)=O)cc2ncnc(Nc3ccc(F)cc3O[C@H](C)C(=O)NCC3CCCO3)c12 (stereo partly drawn) [Example 4.011] | 24 | 86 | 
Cc1cc(N=S(C)(C)=O)cc2ncnc(Nc3ccc(F)cc3O[C@H](C)C(=O)N(C)Cc3ccccc3)c12 [Example 4.012] | 34 | 56 | 
Cc1cc(N=S(C)(C)=O)cc2ncnc(Nc3ccc(F)cc3O[C@H](C)C(=O)N(C)CC(C)C)c12 [Example 4.013] | 5 | 88 | 
Cc1cc(N=S2(=O)CCCC2)cc2ncnc(Nc3ccc(F)cc3O[C@H](C)C(=O)NC3CCOCC3)c12 [Example 4.014] | 3 | 96 | 
Cc1cc(N=S2(=O)CCCC2)cc2ncnc(Nc3ccc(F)cc3O[C@H](C)C(=O)NC3CCC3)c12 [Example 4.015] | 2 | 102 | 
Cc1cc(N=S2(=O)CCCC2)cc2ncnc(Nc3ccc(F)cc3O[C@H](C)C(=O)N(C)Cc3ccccc3)c12 [Example 4.017] | 9 | 73 | 
C#CCNC(=O)[C@@H](C)Oc1cc(F)ccc1Nc1ncnc2cc(N=S(C)(C)=O)cc(C)c12 [Example 4.018] | 4 | 99 | 
Cc1cc(N=S(C)(C)=O)cc2ncnc(Nc3ccc(F)cc3O[C@H](C)C(=O)NC3CCOCC3)c12 [Example 4.019] | 6 | 92 | 
Cc1cc(N=S(C)(C)=O)cc2ncnc(Nc3ccc(F)cc3O[C@H](C)C(=O)NCC(C)O)c12 (stereo partly drawn) [Example 4.020] | 4 | 98 | 
COCC(C)NC(=O)[C@@H](C)Oc1cc(F)ccc1Nc1ncnc2cc(N=S(C)(C)=O)cc(C)c12 (stereo partly drawn) [Example 4.021] | 12 | 92 | 

SMILES | IC50 (MNK2a) [nM] | inhibition at 1 µM (MNK1) [%] | IC50 (MNK1) [nM]
Cc1cc(N=S(C)(C)=O)cc2ncnc(Nc3ccc(F)cc3O[C@H](C)C(=O)N=S(C)(C)=O)c12 [Example 4.022] | 10 | 85 | 
Cc1cc(N=S(C)(C)=O)cc2ncnc(Nc3ccc(F)cc3O[C@H](C)C(=O)NC3CCC3)c12 [Example 4.023] | 5 | 99 | 
C#CCNC(=O)[C@@H](C)Oc1cc(F)ccc1Nc1ncnc2cc(N=S3(=O)CCCC3)cc(C)c12 [Example 4.027] | 1 | 99 | 
Cc1cc(N=S2(=O)CCCC2)cc2ncnc(Nc3ccc(F)cc3O[C@H](C)C(=O)N(C)CCO)c12 [Example 4.028] | 4 | 86 | 
Cc1cc(N=S(C)(C)=O)cc2ncnc(Nc3ccc(F)cc3O[C@H](C)C(=O)NCCO)c12 [Example 4.029] | 3 | 99 | 
CCN(CC)C(=O)[C@@H](C)Oc1cc(F)ccc1Nc1ncnc2cc(N=S(C)(C)=O)cc(C)c12 [Example 4.031] | 8 | 78 | 
CCNC(=O)[C@@H](C)Oc1cc(F)ccc1Nc1ncnc2cc(N=S(C)(C)=O)cc(C)c12 [Example 4.034] | 3 |  | 51
COCCNC(=O)[C@@H](C)Oc1cc(F)ccc1Nc1ncnc2cc(N=S(C)(C)=O)cc(C)c12 [Example 4.035] | 66 | 87 | 
Cc1cc(N=S(C)(C)=O)cc2ncnc(Nc3ccc(F)cc3O[C@H](C)C(=O)N[C@@H]3CCC[C@@H]3O)c12 [Example 4.038] | 27 | 78 | 
COCC(C)NC(=O)[C@@H](C)Oc1cc(F)ccc1Nc1ncnc2cc(N=S3(=O)CCCC3)cc(C)c12 (stereo partly drawn) [Example 4.040] | 2 | 97 | 
COCCN(C)C(=O)[C@@H](C)Oc1cc(F)ccc1Nc1ncnc2cc(N=S3(=O)CCCC3)cc(C)c12 [Example 4.041] | 7 | 82 | 
Cc1cc(N=S2(=O)CCCC2)cc2ncnc(Nc3ccc(F)cc3O[C@H](C)C(=O)NC(C)C)c12 [Example 4.042] | 1 | 97 | 
CC#CCNC(=O)[C@@H](C)Oc1cc(F)ccc1Nc1ncnc2cc(N=S3(=O)CCCC3)cc(C)c12 [Example 4.044] | 3 | 96 | 
Cc1cc(N=S(C)(C)=O)cc2ncnc(Nc3ccc(F)cc3O[C@H](C)C(=O)N[C@H]3CCOC3)c12 [Example 4.045] | 3 | 99 | 
Cc1cc(N=S2(=O)CCCC2)cc2ncnc(Nc3ccc(F)cc3O[C@H](C)C(N)=O)c12 [Example 4.047] | 5 | 86 | 
CCC(C)NC(=O)[C@@H](C)Oc1cc(F)ccc1Nc1ncnc2cc(N=S(C)(C)=O)cc(C)c12 (stereo partly drawn) [Example 4.048] | 2 | 98 | 
CCC(C)NC(=O)[C@@H](C)Oc1cc(F)ccc1Nc1ncnc2cc(N=S3(=O)CCCC3)cc(C)c12 (stereo partly drawn) [Example 4.050] | 1 | 100 | 
Cc1cc(N=S2(=O)CCCC2)cc2ncnc(Nc3ccc(F)cc3O[C@H](C)C(=O)N(C)C)c12 [Example 4.051] | 5 | 82 | 
Cc1cc(N=S2(=O)CCCC2)cc2ncnc(Nc3ccc(F)cc3O[C@H](C)C(=O)N(C)CC(C)C)c12 [Example 4.052] | 3 | 94 | 
Cc1cc(N=S(C)(C)=O)cc2ncnc(Nc3ccc(F)cc3O[C@H](C)C(=O)N(C)C3CCCC3)c12 [Example 4.053] | 16 | 80 | 
Cc1cc(N=S2(=O)CCCC2)cc2ncnc(Nc3ccc(F)cc3O[C@H](C)C(=O)N3CCC(=O)CC3)c12 [Example 4.054] | 9 | 95 | 
COCCN(C)C(=O)[C@@H](C)Oc1cc(F)ccc1Nc1ncnc2cc(N=S(C)(C)=O)cc(C)c12 [Example 4.055] | 14 | 62 | 
Cc1cc(N=S(C)(C)=O)cc2ncnc(Nc3ccc(F)cc3O[C@H](C)C(=O)N3CCN(C)CC3)c12 [Example 4.056] | 25 | 74 | 

— patent US9139577B2, “Sulfoximine substituted quinazolines for pharmaceutical compositions” (Boehringer Ingelheim International GmbH, priority 2013, dated 2015)
